Test results: patent publication US5880145A, “Class of benzoporphyrin derivative photoactive compounds” (The University of British Columbia, priority 1997, dated 1999)
Read-outs that look alike come from different tables or passages of the source.

What was measured:
[1] = system: Murine leukemia cells (L1210); assay: Photosensitization of cells in vitro (broad spectrum light 9 j/cm^2; MTT cell viability); format: cell-based; conditions: for IC50: Mus musculus, L1210, light or radiation study, 20 h, 1 hour incubation, light 9 j/cm^2, viability 20 hours later, read-out: LD50 (dose causing 50% cell kill)
Description: Murine leukemia cells (L1210) were incubated in suitable buffer with and without serum in various amounts of the drug B3 for 1 hour. After removal of the drug, the cells were exposed to broad spectrum light at 9 j/cm^2. Cell viability was determined 20 hours later by the MTT colorimetric assay. Results are presented in FIGS. 2A and 2B as % cell kill for cells exposed to light only.

L1210 cells [2] = assay: Uptake of B3 by cells in vitro; format: cell-based, Murine; conditions: 3 μg/ml, 10% serum
Description: Uptake of B3 by cells in vitro: L1210 cells (5×10^6 /vial) were incubated in the presence of 10% serum with B3 at 3 μg/ml for times up to 100 minutes. At various times during incubation, duplicate vials were pulled out and the cells, following washing, were lysed and the amount of B3 in the extract determined by fluorescence in the presence of 1% Triton X-100.

L1210 cells [3] = assay: Release/retention of B3 by cells in vitro; format: cell-based, Murine; conditions: after 1 hour incubation at 3 μg/ml; drug-free medium with 10% serum
Description: Release/retention of B3 by cells in vitro: L1210 cells were incubated for 1 hour with B3 at 3 μg/ml in the presence of 10% serum, then washed and placed in drug-free medium containing 10% serum. At various times duplicate aliquots were evaluated for cell content of B3 as described above.

[4] = Tissue distribution and clearance in vivo; conditions: mice, intravenous 4 mg/kg
Description: Mice (normal, healthy and M1-tumor-bearing) were injected intravenously at 4 mg/kg with B3 formulated in aqueous solution containing DMSO. At various times post B3 administration, the animals were sacrificed and B3 content in various tissues was determined in tissue extracts by fluorescence as described above.

[5] = system: M1 (rhabdomyosarcoma) tumor-bearing mice; assay: Selectivity in vivo: biodistribution (tumor:tissue ratios)
Description: Mice (normal, healthy and M1-tumor-bearing) were injected intravenously at 4 mg/kg with B3 formulated in aqueous solution containing DMSO. At various times post B3 administration, the animals were sacrificed and B3 content in various tissues was determined in tissue extracts by fluorescence as described above. Biodistribution data of B3 (tumor:tissue ratios) obtained in M1 (rhabdomyosarcoma) tumor-bearing mice were also evaluated at various times. Within the first hour post intravenous administration of 4 mg/kg B3, tumor:tissue ratios for the muscle and skin were 1.5-2.0 and 3.1-3.9, respectively. Lymph nodes gave ratios of 0.7. […] Since this preferential accumulation was observed shortly after B3 administration, this photosensitizer can be activated with light shortly after its injection, which is convenient in clinical use.

[6] = within first hour post intravenous 4 mg/kg

With `C=Cc1c(C)c2cc3nc(cc4[nH]c(cc5nc(cc1[nH]2)[C@@]1(C)C5=CC=C(C(=O)O)[C@H]1C(=O)OC)c(C)c4CCC(=O)OC)C(CCC(=O)OC)=C3C` (relative stereo) [Example B3] the IC50 ([1]; in the absence of 10% serum) was 0.007 µg/mL, the IC50 ([1]; in the presence of 10% serum) was 0.035 µg/mL and the “photosensitization of cells (in words)” value ([1]; with and without serum) was “very potent photosensitizer of cells and maintains this property in the presence of serum”. For the same compound, the “time to reach maximum concentrations in cells (uptake)” value (L1210 cells [2]) was no more than 20 min, the “cellular pharmacokinetics in vitro (in words)” value (L1210 cells [2]; uptake and release, L1210 cells) was “very rapid pharmacokinetics in vitro” and the “time after which release from cells is rapid and almost complete” value (L1210 cells [3]) was roughly 30 min. For the same compound, the “pharmacokinetics in vivo (in words)” value [4] was “very rapid pharmacokinetics in vivo”, the “time after which drug was cleared from tissues tested” value ([4]; aqueous solution containing DMSO) was “about 5 minutes” and the “accumulation in tumor and other rapidly proliferating tissues versus normal tissues (in words)” value ([5]; shortly after intravenous 4 mg/kg) was “preferential accumulation of B3 in tumor and other rapidly proliferating tissues (lymph nodes) in contrast to normal, nonproliferating tissues”. The “tumor:tissue ratio, lymph nodes” value [5, 6] was 0.7, the “tumor:tissue ratio, muscle” value [5, 6] was 1.5-2.0 and the “tumor:tissue ratio, skin” value [5, 6] was 3.1-3.9.
